In patent publication US20110077251A1, “NOVEL 17 BETA LUPANE DERIVATIVES” (priority 2009, published 2011):

Key:
[1] = system: HIVIIIB; experiment: HIV-1 replication in MT2 cell line without human serum (RT activity in supernatant); format: cell-based; settings: Human immunodeficiency virus 1, 120 h, MT2 cells, day 5 after infection, average if tested more than once, read-out: MT2 (HIVIIIB) IC50 range
Protocol: (§1) HIV-1 Replication in MT2 cell line with and without 30% human serum: The cells are infected at a Multiciplicity of Infection (MOI) of 0.5 for 3 h and then washed twice with complete media to remove residual virus. Cells are then resuspended at 0.5×10^6/ml in complete medium (RPMI, 10% FBS, 1% sodium pyruvate), and seeded into 96-well plates (6.25×10^4/well). The cells are cultured in the presence or absence of various concentrations of test compounds in serial dilutions for 3 days at 37° C. The test compounds are serially diluted in complete medium supplemented or not with 30% human serum. After 3 days, 100 μL of cultured medium with cells are replaced with 120 μL of freshly diluted test compounds in complete medium containing or not 30% Human serum. The level of HIV-1 replication is determined at days 5 after infection by the presence of viral RT activity in harvested supernatant fluid. The IC50 values for the virus replication are determined by using GRAPHPAD PRISM software.
(§2) The IC50 of the compounds tested in accordance with the HIV replication activity assay MT2 (HIVIIIB) with or without human serum are represented in Table 6.

[2] = system: HIVIIIB; experiment: HIV-1 replication in MT2 cell line with 30% human serum (RT activity in supernatant); format: cell-based; settings: Human immunodeficiency virus 1, 120 h, MT2 cells, day 5 after infection, average if tested more than once, read-out: MT2 (HIVIIIB) with human serum IC50 range
Protocol: as §1, §2

Compound: C=C(C)[C@@H]1CC[C@]2(NC(=O)OC(C)(C)C)CC[C@]3(C)[C@H](CC[C@@H]4[C@@]5(C)CC[C@H](OC(=O)CC(C)(C)C(=O)O)C(C)(C)[C@@H]5CC[C@]43C)[C@@H]12 [Cpd 8-1, 3β-O-(3′,3′-Dimethylsuccinyl)-17β-tert-butyloxycarbonylamino-28-norlup-20(29)-ene]
- IC50 [1]: < 199 nM

Compound: C=C(C)[C@@H]1CC[C@]2(NC(=O)NC(=O)OC)CC[C@]3(C)[C@H](CC[C@@H]4[C@@]5(C)CC[C@H](OC(=O)CC(C)(C)C(=O)O)C(C)(C)[C@@H]5CC[C@]43C)[C@@H]12 [Cpd 11-1, 3β-O-(3′,3′-Dimethylsuccinyl)-17β-[N′-(methoxycarbonyl)ureido]-28-norlup-20(29)-ene]
- IC50 [2]: < 199 nM
- IC50 [1]: < 199 nM

Compound: C=C(C)[C@@H]1CC[C@]2(NC(=O)NC(C)(C)C)CC[C@]3(C)[C@H](CC[C@@H]4[C@@]5(C)CC[C@H](OC(=O)CC(C)(C)C(=O)O)C(C)(C)[C@@H]5CC[C@]43C)[C@@H]12 [Cpd 11-2, 3β-O-(3′,3′-Dimethylsuccinyl)-17β-[N′-(tert-butyl)ureido]-28-norlup-20(29)-ene]
- IC50 [2]: < 199 nM
- IC50 [1]: < 199 nM

Compound: C=C(C)[C@@H]1CC[C@]2(NC(=O)N[C@@H](C(=O)O)C(C)C)CC[C@]3(C)[C@H](CC[C@@H]4[C@@]5(C)CC[C@H](OC(=O)CC(C)(C)C(=O)O)C(C)(C)[C@@H]5CC[C@]43C)[C@@H]12 [Cpd 11-4, 3β-O-(3′,3′-Dimethylsuccinyl)-28-norlup-20(29)-ene-17β-yl-N-carbamoyl-L-valine]
- IC50 [1]: < 199 nM

Compound: C=C(C)[C@@H]1CC[C@]2(NC(=O)N[C@@H](C(=O)O)C(C)C)CC[C@]3(C)[C@H](CC[C@@H]4[C@@]5(C)CC[C@H](OC(=O)CC(C)(C)CC(=O)O)C(C)(C)[C@@H]5CC[C@]43C)[C@@H]12 [Cpd 11-5, 3β-O-(3′,3′-Dimethylglutaryl)-28-norlup-20(29)-ene-17β-yl-N-carbamoyl-L-valine]
- IC50 [1]: < 199 nM

Compound: C=C(C)[C@@H]1CC[C@]2(NC(=O)NCc3ccccc3)CC[C@]3(C)[C@H](CC[C@@H]4[C@@]5(C)CC[C@H](OC(=O)CC(C)(C)C(=O)O)C(C)(C)[C@@H]5CC[C@]43C)[C@@H]12 [Cpd 11-6, 3β-O-(3′,3′-Dimethylsuccinyl)-17β-[N′-(benzyl)ureido]-28-norlup-20(29)-ene]
- IC50 [2]: < 199 nM
- IC50 [1]: < 199 nM

Compound: C=C(C)[C@@H]1CC[C@]2(NC(=O)NC)CC[C@]3(C)[C@H](CC[C@@H]4[C@@]5(C)CC[C@H](OC(=O)CC(C)(C)C(=O)O)C(C)(C)[C@@H]5CC[C@]43C)[C@@H]12 [Cpd 11-7, 3β-O-(3′,3′-Dimethylsuccinyl)-17β-[N′-(methyl)ureido]-28-norlup-20(29)-ene]
- IC50 [2]: < 199 nM
- IC50 [1]: < 199 nM

Compound: C=C(C)[C@@H]1CC[C@]2(NC(=O)N3CCOCC3)CC[C@]3(C)[C@H](CC[C@@H]4[C@@]5(C)CC[C@H](OC(=O)CC(C)(C)C(=O)O)C(C)(C)[C@@H]5CC[C@]43C)[C@@H]12 [Cpd 11-8, 3β-O-(3′,3′-Dimethylsuccinyl)-17β-[(morpholine-4-carbonyl)-amino]-28-norlup-20(29)-ene]
- IC50 [2]: < 199 nM
- IC50 [1]: < 199 nM

Compound: C=C(C)[C@@H]1CC[C@]2(NC(=O)N3CCN(C)CC3)CC[C@]3(C)[C@H](CC[C@@H]4[C@@]5(C)CC[C@H](OC(=O)CC(C)(C)C(=O)O)C(C)(C)[C@@H]5CC[C@]43C)[C@@H]12 [Cpd 11-9, 3β-O-(3′,3′-Dimethylsuccinyl)-17β-[(4-methyl-piperazine-1-carbonyl)-amino]-28-norlup-20(29)-ene]
- IC50 [2]: < 199 nM
- IC50 [1]: < 199 nM

Compound: C=C(C)[C@@H]1CC[C@]2(NC(N)=O)CC[C@]3(C)[C@H](CC[C@@H]4[C@@]5(C)CC[C@H](OC(=O)CC(C)(C)C(=O)O)C(C)(C)[C@@H]5CC[C@]43C)[C@@H]12 [Cpd 11-10, 3β-O-(3′,3′-Dimethylsuccinyl)-17β-ureido-28-norlup-20(29)-ene]
- IC50 [2]: < 199 nM
- IC50 [1]: < 199 nM

Compound: C=C(C)[C@@H]1CC[C@]2(NS(C)(=O)=O)CC[C@]3(C)[C@H](CC[C@@H]4[C@@]5(C)CC[C@H](OC(=O)CC(C)(C)C(=O)O)C(C)(C)[C@@H]5CC[C@]43C)[C@@H]12 [Cpd 12-1, 3β-O-(3′,3′-Dimethylsuccinyl)-17β-methylsulfonylamino-28-norlup-20(29)-ene]
- IC50 [2]: < 199 nM
- IC50 [1]: < 199 nM

Compound: C=C(C)[C@@H]1CC[C@]2(NC(C)=O)CC[C@]3(C)[C@H](CC[C@@H]4[C@@]5(C)CC[C@H](OC(=O)CC(C)(C)C(=O)O)C(C)(C)[C@@H]5CC[C@]43C)[C@@H]12 [Cpd 13-1, 17β-Acetylamino-3β-O-(3′,3′-dimethylsuccinyl)-28-norlup-20(29)-ene]
- IC50 [2]: < 199 nM
- IC50 [1]: < 199 nM

Compound: C=C(C)[C@@H]1CC[C@]2(NC(=O)C(=O)OC)CC[C@]3(C)[C@H](CC[C@@H]4[C@@]5(C)CC[C@H](OC(=O)CC(C)(C)C(=O)O)C(C)(C)[C@@H]5CC[C@]43C)[C@@H]12 [Cpd 13-2, 3β-O-(3′,3′-Dimethylsuccinyl)-17β-methoxyoxalyl-amino-28-norlup-20(29)-ene]
- IC50 [1]: < 199 nM

Compound: C=C(C)[C@@H]1CC[C@]2(NC(=O)C(=O)N(C)C)CC[C@]3(C)[C@H](CC[C@@H]4[C@@]5(C)CC[C@H](OC(=O)CC(C)(C)C(=O)O)C(C)(C)[C@@H]5CC[C@]43C)[C@@H]12 [Cpd 13-3, 17β-Dimethylaminooxalyl-amino-3β-O-(3′,3′-dimethylsuccinyl)-28-norlup-20(29)-ene]
- IC50 [2]: < 199 nM
- IC50 [1]: < 199 nM

Compound: C=C(C)[C@@H]1CC[C@]2(NC(=O)CC(C)(C)C(=O)O)CC[C@]3(C)[C@H](CC[C@@H]4[C@@]5(C)CC[C@H](OC(=O)CC(C)(C)C(=O)O)C(C)(C)[C@@H]5CC[C@]43C)[C@@H]12 [Cpd 13-4, 3β-O,17β-N-bis(3′,3′-dimethylsuccinyl)-28-norlup-20(29)-ene]
- IC50 [1]: < 199 nM

Compound: C=C(C)[C@@H]1CC[C@]2(NC(=O)CC(C)(C)CC(=O)O)CC[C@]3(C)[C@H](CC[C@@H]4[C@@]5(C)CC[C@H](OC(=O)CC(C)(C)CC(=O)O)C(C)(C)[C@@H]5CC[C@]43C)[C@@H]12 [Cpd 13-5, 3β-O,17β-N-bis(3′,3′-dimethylglutaryl)-28-norlup-20(29)-ene]
- IC50 [1]: < 199 nM

Compound: C=C(C)[C@@H]1CC[C@]2(NC(=O)Cc3ccccc3)CC[C@]3(C)[C@H](CC[C@@H]4[C@@]5(C)CC[C@H](OC(=O)CC(C)(C)C(=O)O)C(C)(C)[C@@H]5CC[C@]43C)[C@@H]12 [Cpd 13-6, 3β-O-(3′,3′-Dimethylsuccinyl)-17β-phenylacetylamino-28-norlup-20(29)-ene]
- IC50 [2]: < 199 nM
- IC50 [1]: < 199 nM

Compound: C=C(C)[C@@H]1CC[C@]2(NC(=O)c3ccccc3)CC[C@]3(C)[C@H](CC[C@@H]4[C@@]5(C)CC[C@H](OC(=O)CC(C)(C)C(=O)O)C(C)(C)[C@@H]5CC[C@]43C)[C@@H]12 [Cpd 13-7, 17β-Benzoylamino-3β-O-(3′,3′-dimethylsuccinyl)-28-norlup-20(29)-ene]
- IC50 [1]: < 199 nM

Compound: C=C(C)[C@@H]1CC[C@]2(NC(=O)c3ccncc3)CC[C@]3(C)[C@H](CC[C@@H]4[C@@]5(C)CC[C@H](OC(=O)CC(C)(C)C(=O)O)C(C)(C)[C@@H]5CC[C@]43C)[C@@H]12 [Cpd 13-8, 3β-O-(3′,3′-Dimethylsuccinyl)-17β-(pyridin-4-ylcarbonyl)-amino-28-norlup-20(29)-ene]
- IC50 [2]: 200 to 999 nM
- IC50 [1]: < 199 nM

Compound: C=C(C)[C@@H]1CC[C@]2(NC(=O)C3CC3)CC[C@]3(C)[C@H](CC[C@@H]4[C@@]5(C)CC[C@H](OC(=O)CC(C)(C)C(=O)O)C(C)(C)[C@@H]5CC[C@]43C)[C@@H]12 [Cpd 13-9, 17β-(Cyclopropanecarbonyl-amino)-3β-O-(3′,3′-dimethylsuccinyl)-28-norlup-20(29)-ene]
- IC50 [2]: < 199 nM
- IC50 [1]: < 199 nM

Compound: C=C(C)[C@@H]1CC[C@]2(NC(=O)C(C)C)CC[C@]3(C)[C@H](CC[C@@H]4[C@@]5(C)CC[C@H](OC(=O)CC(C)(C)C(=O)O)C(C)(C)[C@@H]5CC[C@]43C)[C@@H]12 [Cpd 13-10, 3β-O-(3′,3′-Dimethylsuccinyl)-17β-isobutyrylamino-28-norlup-20(29)-ene]
- IC50 [2]: < 199 nM
- IC50 [1]: < 199 nM

Compound: C=C(C)[C@@H]1CC[C@]2(NC(=O)CCN3CCCC3)CC[C@]3(C)[C@H](CC[C@@H]4[C@@]5(C)CC[C@H](OC(=O)CC(C)(C)C(=O)O)C(C)(C)[C@@H]5CC[C@]43C)[C@@H]12 [Cpd 13-11, 3β-O-(3′,3′-Dimethylsuccinyl)-17β-(3-pyrrolidin-1-yl-propionylamino)-28-norlup-20(29)-ene]
- IC50 [2]: < 199 nM
- IC50 [1]: < 199 nM

Compound: C=C(C)[C@@H]1CC[C@]2(NC(=O)OCc3ccccc3)CC[C@]3(C)[C@H](CC[C@@H]4[C@@]5(C)CC[C@H](OC(=O)CC(C)(C)C(=O)O)C(C)(C)[C@@H]5CC[C@]43C)[C@@H]12 [Cpd 14-2, 3β-O-(3′,3′-Dimethylsuccinyl)-17β-benzyloxycarbonylamino-28-norlup-20(29)-ene]
- IC50 [1]: < 199 nM
